Drawing on US6462198B1, “Carbamic acid derivatives” (Hoffmann-La Roche Inc., priority 1999, dated 2002), this text covers melting point, IC50 and agonist/antagonist for 26 molecules.

The melting point is the temperature, or range, at which the solid turns liquid. The IC50 is the concentration at which inhibition is half-maximal.

For one data set, the target named is T1, rat mGlu 1a receptor (Rattus norvegicus, UniProt P23385).
T1 construct: expressed in transfected cells; host or cells: EBNA cells (transient transfection)
Nature of the data set: [Ca2+]i measurement (FLIPR) on mGlu 1a transfected EBNA cells. Type of data set: cell-based. Particulars: for agonist/antagonist: mode of action at group I mGlu receptor, [Ca2+]i FLIPR assay.

Setting [1] is: compounds acting as antagonists, tested against 10 μM glutamate as agonist.

T1 sequence (P23385 19-1199): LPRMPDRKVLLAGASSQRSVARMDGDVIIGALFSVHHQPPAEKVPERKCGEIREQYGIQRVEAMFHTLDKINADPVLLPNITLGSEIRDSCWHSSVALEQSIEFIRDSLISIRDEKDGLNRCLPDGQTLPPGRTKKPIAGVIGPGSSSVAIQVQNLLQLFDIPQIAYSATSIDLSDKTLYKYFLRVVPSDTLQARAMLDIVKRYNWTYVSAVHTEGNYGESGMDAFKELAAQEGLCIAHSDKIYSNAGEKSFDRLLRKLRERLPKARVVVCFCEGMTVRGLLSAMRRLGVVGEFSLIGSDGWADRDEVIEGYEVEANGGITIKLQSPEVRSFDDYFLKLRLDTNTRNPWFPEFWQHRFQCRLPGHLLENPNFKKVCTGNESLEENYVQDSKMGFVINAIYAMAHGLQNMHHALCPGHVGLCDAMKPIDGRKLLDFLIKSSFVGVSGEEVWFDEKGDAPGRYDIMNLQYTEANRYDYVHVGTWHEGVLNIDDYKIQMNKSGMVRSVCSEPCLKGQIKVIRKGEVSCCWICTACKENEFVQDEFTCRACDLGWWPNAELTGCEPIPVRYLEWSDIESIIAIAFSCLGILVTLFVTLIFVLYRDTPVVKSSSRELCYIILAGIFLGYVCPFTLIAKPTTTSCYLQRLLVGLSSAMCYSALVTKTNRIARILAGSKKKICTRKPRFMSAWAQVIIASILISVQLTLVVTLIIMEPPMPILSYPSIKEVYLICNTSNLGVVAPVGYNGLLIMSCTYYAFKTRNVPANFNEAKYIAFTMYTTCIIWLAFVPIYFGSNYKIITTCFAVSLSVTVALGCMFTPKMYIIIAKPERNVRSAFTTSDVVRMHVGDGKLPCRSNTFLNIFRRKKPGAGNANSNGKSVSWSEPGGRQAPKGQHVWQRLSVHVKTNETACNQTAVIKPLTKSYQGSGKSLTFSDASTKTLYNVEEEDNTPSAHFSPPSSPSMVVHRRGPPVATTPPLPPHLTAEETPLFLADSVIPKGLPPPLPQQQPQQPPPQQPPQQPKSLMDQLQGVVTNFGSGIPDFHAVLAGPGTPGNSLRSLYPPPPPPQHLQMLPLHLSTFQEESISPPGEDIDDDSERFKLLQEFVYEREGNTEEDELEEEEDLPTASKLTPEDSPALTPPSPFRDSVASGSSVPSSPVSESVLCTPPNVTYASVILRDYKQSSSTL

In the case of `CCCCOC(=O)NC(=O)C(c1ccccc1)c1ccccc1`, the melting point was in the range of 82 to 84 °C.

With `CCOC(=O)NC(=O)C1c2ccccc2Sc2ccccc21`, the melting point lay in the range of 179 to 182 °C.

Take `O=C(NC(=O)C(c1ccccc1)c1ccccc1)OCCN1CCOCC1`: the melting point was in the range of 135 to 137 °C.

Turning to `CCCCSC(=O)NC(=O)C(c1ccccc1)c1ccccc1`, the melting point came out at 99 °C.

In turn, `CCOC(=O)NC(=O)C(c1cccc(C)c1)c1ncc(C(F)(F)F)cc1Cl` (centres unmarked) displayed a melting point of 146 to 147 °C.

`CCOC(=O)NC(=O)C1c2ccccc2Oc2c1cccc2C(F)(F)F` (centres unmarked) showed a melting point of 196 to 198 °C.

The molecule `O=C(NC(=O)C(c1ccccc1)c1ccccc1)C1CC1` showed a melting point of 178 °C.

The molecule `CCCC(=O)NC(=O)C1c2ccccc2Oc2ccccc21` registered a melting point of 222 °C.

As to `CCCC(=O)NC(=O)C(c1ccccc1)c1ccccc1`, the melting point stood at 205 °C.

Molecule `CC(C)(C)OC(=O)NC(=O)C(c1ccccc1)c1ccccc1` showed a melting point of 160 to 162 °C.

As to `CCOC(=O)NC(=O)C1c2ccccc2Oc2ccccc21`, the melting point is 228 °C (dec.).

`CCOC(=O)NC(=O)C1c2ccccc2Oc2ccc(Br)cc21` (racemic): the melting point turned out to be 203 °C.

Consider `C=CCOC(=O)NC(=O)C(c1ccccc1)c1ccccc1` [Example 3, Diphenylacetyl-carbamic acid allyl ester], for which the melting point was 118 to 120 °C.

In the case of `CC(C)OC(=O)NC(=O)C(c1ccccc1)c1ccccc1` [Example 4, Diphenylacetyl-carbamic acid isopropyl ester], the melting point fell in the range of 122 to 124 °C.

Turning to `O=C(NC(=O)C(c1ccccc1)c1ccccc1)OCC1CC1` [Example 10, Diphenylacetyl-carbamic acid cyclopropylmethyl ester], the melting point came to 108 °C.

Molecule `C=CCOC(=O)NC(=O)C(C)(c1ccccc1)c1ccccc1` [Example 24, (2,2-Diphenyl-propionyl)-carbamic acid allyl ester] gave a melting point of 89 °C. Moreover, the IC50 at rat mGlu 1a receptor (setting [1]) was 2790 nM.

`CCCCOC(=O)NC(=O)C(C)(c1ccccc1)c1ccccc1` [Example 25, (2,2-Diphenyl-propionyl)-carbamic acid butyl ester] showed a melting point of 83 °C. This molecule showed a concentration for half-maximal inhibition (IC50) on rat mGlu 1a receptor (setting [1]) of 1380 nM.

`O=C(Nc1ncco1)C1c2ccccc2Sc2ccccc21` [Example 31, 9H-Thioxanthene-9-carboxylic acid oxazol-2-ylamide]: the melting point was in the range of 188 to 191 °C.

Molecule `CCCCOC(=O)NC(=O)C1c2ccccc2Sc2ccccc21` [Example 32, (9H-Thioxanthene-9-carbonyl)-carbamic acid butyl ester] came in with a melting point of 151 to 154 °C. In addition, the agonist/antagonist result on rat mGlu 1a receptor is “agonist”.

In turn, `CCCCC(=O)NC(=O)C(c1ccccc1)c1ccccc1` [Example 43, Pentanoic acid diphenylacetyl-amide] returned a melting point of 83 °C.

With `COCCc1nnc(NC(=O)C(c2ccccc2)c2ccccc2)o1` [Example 55, N-[5-(2-Methoxy-ethyl)-[1,3,4]oxadiazol-2-yl]-2,2-diphenyl-acetamide], the melting point is 114 to 115 °C.

`O=C(Nc1nnc(C2CC2)o1)C(c1ccccc1)c1ccccc1` [Example 57, N-(5-Cyclopropyl-[1,3,4]oxadiazol-2-yl)-2,2-diphenyl-acetamide] registered a melting point of 159 to 160 °C.

For the molecule `O=C(Nc1nnc(CC2CC2)o1)C(c1ccccc1)c1ccccc1` [Example 59, N-(5-Cyclopropylmethyl-[1,3,4]oxadiazol-2-yl)-2,2-diphenyl-acetamide], the melting point is 158 to 159 °C.

On to `CCc1cnc(NC(=O)C(c2ccccc2)c2ccccc2)o1` [Example 63, N-(5-Ethyl-oxazol-2-yl)-2,2-diphenyl-acetamide], for which the melting point is 148 to 149 °C.

In the case of `Cc1cnc(NC(=O)C(c2ccccc2)c2ccccc2)o1` [Example 65, N-(5-Methyl-oxazol-2-yl)-2,2-diphenyl-acetamide], the melting point is 166 to 168 °C. For the same molecule, the IC50 on rat mGlu 1a receptor (compounds acting as agonists, activation curve) stood at 400 nM. In addition, the agonist/antagonist entry on rat mGlu 1a receptor was “agonist”.

As for “(2,2-Diphenyl-propionyl)-carbamic acid methyl ester [Example 23]”, the half-maximal inhibitory concentration (IC50) on rat mGlu 1a receptor (setting [1]) came out at 6310 nM. Also, the agonist/antagonist result on rat mGlu 1a receptor is recorded as “antagonist”.
